According to US20240307338A1, “USE OF PHARMACEUTICAL COMPOSITION CONTAINING CHLOROGENIC ACID IN PREPARATION OF MEDICAMENT FOR TREATING PATHOLOGIC JAUNDICE” (SICHUAN JIUZHANG BIOLOGICAL SCIENCE AND TECHNOLOGY CO., LTD., priority 2021, published 2024):

Assays:
Type in all cases: in vivo, SD rats
[1] = tested on: rat model of hemolytic jaundice (acetylphenylhydrazine-induced); test: Detection of glutathione (GSH) by ELISA in rats with APH-induced hemolytic jaundice; conditions: after 6 days of treatment, in words, compared with the model control group (data not shown)
Method: Clean adult male SD rats, weighing 200 g-250 g. The following experiment was carried out mainly by referring to the method described in CN104739818A. In short, in the example, acetylphenylhydrazine (APH) was used as a modeling drug to construct a rat model of hemolytic jaundice, which was also a commonly used model for studying neonatal hemolytic jaundice at home and abroad. The most prominent feature of hemolytic jaundice was the collapse of the patient's red blood cells, causing hemolysis. […] At the same time, due to the rupture of red blood cells and the release of bilirubin, liver function was damaged. The mechanism and symptoms simulated by APH were similar to those of hemolytic jaundice. From 60 healthy SD rats with required body weight, 10 rats were randomly selected as the normal control group, and the remaining 50 rats were intraperitoneally injected with acetylphenylhydrazine (APH) at a dose of 150 mg/kg for 3 consecutive days, to construct the animal model of hemolytic jaundice induced by oxidation of red blood cells. […] In order to explore the mechanism for the possible therapeutic effect of CGA, the GSH level of rats in each group was detected in this example. […]

[2] = tested on: rat model of hemolytic jaundice (acetylphenylhydrazine-induced); test: Determination of total, direct and indirect bilirubin in rats with APH-induced hemolytic jaundice
Method: (§1) Clean adult male SD rats, weighing 200 g-250 g. The following experiment was carried out mainly by referring to the method described in CN104739818A. In short, in the example, acetylphenylhydrazine (APH) was used as a modeling drug to construct a rat model of hemolytic jaundice, which was also a commonly used model for studying neonatal hemolytic jaundice at home and abroad. The most prominent feature of hemolytic jaundice was the collapse of the patient's red blood cells, causing hemolysis. […] At the same time, due to the rupture of red blood cells and the release of bilirubin, liver function was damaged. The mechanism and symptoms simulated by APH were similar to those of hemolytic jaundice. From 60 healthy SD rats with required body weight, 10 rats were randomly selected as the normal control group, and the remaining 50 rats were intraperitoneally injected with acetylphenylhydrazine (APH) at a dose of 150 mg/kg for 3 consecutive days, to construct the animal model of hemolytic jaundice induced by oxidation of red blood cells. […] 50 rats successfully modeled were randomly divided into 5 groups, 10 rats for each group, and the groups were respectively named as: model control group (n=10), CGA group (n=10), bifidobacteria+HMO group (n=10), CGA+bifidobacteria+HMO low-dose group (n=10), CGA+bifidobacteria+HMO high-dose group (n=10), together with the normal control group (n=10), a total of 6 experimental groups, including 60 rats. In the experiment, rats in each group were administered by gavage, while the blank group and the model group were given the solvent physiological saline by gavage. The administration time is 6 days. The composition and dosage of therapeutic drugs for each group were as follows: • (1) CGA group: CGA 60 mg/kg/day, administered by gavage with physiological saline as solvent. • (2) bifidobacteria+HMO group: Bifidobacterium brevis M16-V (6 mg/kg/day), lacto-N-neotetraose (3 mg/kg/day), and 6′-sialyllactose (3 mg/kg/day). The mixture of the above components was prepared according to the weight ratio, and using physiological saline as the solvent, the solution of the mixture was administered by gavage. • (3) CGA+bifidobacteria+HMO low-dose group: CGA (60 mg/kg/day), Bifidobacterium brevis M16-V (6 mg/kg/day), lacto-N-neotetraose (3 mg/kg/day), and 6′-sialyllactose (3 mg/kg/day). […] In this example, the activity of ALT (alanine aminotransferase) and AST (aspartate aminotransferase) was determined by rate method, while α-GST was detected using α-GST (α-glutathione s-transferase) detection kit; • (2) The blood sample stored in step (1) was taken out, and then bilirubin and direct bilirubin were detected by using the total bilirubin detection kit and the direct bilirubin detection kit.

[3] = tested on: rat model of hemolytic jaundice (acetylphenylhydrazine-induced); test: Activity assay of α-GST, ALT and AST in serum of rats with APH-induced hemolytic jaundice
Method: as §1

[4] = after 6 days of gavage, APH model rats, mean ± SD, n=10
[5] = after 6 days of treatment, in words, compared with the model control group
[6] = serum, after 6 days of gavage, APH model rats, mean ± SD, n=10

Structure (SMILES): O=C(/C=C/c1ccc(O)c(O)c1)O[C@@H]1C[C@](O)(C(=O)O)C[C@@H](O)[C@H]1O [CGA, 3-O-caffeoylquinic acid]
- content of GSH in serum [1]: increased significantly
- Direct bilirubin [2, 4]: 1.86 ± 0.85 µmol/L
- Indirect bilirubin [2, 4]: 1.51 µmol/L
- Total bilirubin [2, 4]: 3.37 ± 0.93 µmol/L
- levels of direct bilirubin, indirect bilirubin and total bilirubin [2, 5]: significantly decreased
- levels of α-GST, ALT, and AST in serum [3, 5]: significantly decreased
- ALT [3, 6]: 26.5 ± 3.8 U/L
- AST [3, 6]: 29.8 ± 5.1 U/L
- α-GST [3, 6]: 20.9 ± 4.2
